A short description of the data set: recombinant UMI read abundance after kanamycin selection (control-corrected) (log10(CPM+1)); higher = more efficient recombination; extreme values may be limits of the assay; sequences stand for … in AGTGCAGAGAAAATCGGCCAGTTTTCTCTGCCTGCAGTCCGCATGCCGTGGGACCCCTTGGGTTCTAACCTGTTGCCTAGATTTATGCAGCGGACTGCCTTTCTCCCAAAGTGATAAACCGG…AGGTTGGTTTCACT; site = the 11-nt donor. Summed up: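 Counts of recombinant UMIs were reported as log10(CPM+1). Before that, they were converted to CPM, averaged over replicates and scaled using control-derived factors. They came from PCR across the donor–target junction after Escherichia coli carrying the pair library and target plasmid was plated on IPTG (0.07 mM) plus kanamycin, or unselected, in two replicates each.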
As for “TGTTGAGCATGGACCGGTTTTCCCGGTAATCCGTATTTGCA (site TGTTGAGCTTG)”, the “recombinant UMI read abundance (log10)” value was determined as 0.98.
With “TGTTTAGCATGGACCGGTTTTCCCGGTAATCCGTATTTGGG (site TGTTTAGCTCC)” the figure was 0.00333; with “TTAAAGCCATGGACCGGTTTTCCCGGTAATCCGTATTTGGC (site TTAAAGCCTGC)”, 0; with “TTAATATCATGGACCGGTTTTCCCGGTAATCCGTATTTGAC (site CTAGTATCTGT)”, 0.
For “TTAATATCATGGACCGGTTTTCCCGGTAATCCGTATTTGAC (site TTAATATCTGT)”, the “recombinant UMI read abundance (log10)” value was 1.18.
Take “TTACAAACATGGACCGGTTTTCCCGGTAATCCGTATTTGAG (site TTACAAACTCT)”: the “recombinant UMI read abundance (log10)” value was 2.21.
The value for “TTACCCACATGGACCGGTTTTCCCGGTAATCCGTATTTGTG (site TTACCCACTCA)” was 0.0352; that for “TTACGCTCATGGACCGGTTTTCCCGGTAATCCGTATTTGAT (site TTACGCTCTAT)” was 1.93; that for “TTACGTGCATGGACCGGTTTTCCCGGTAATCCGTATTTGTA (site TTACGTGCTTA)” was 1.51.
The value for “TTACGTTCATGGACCGGTTTTCCCGGTAATCCGTATTTGAG (site TTACGTTCTCT)” was 1.76; that for “TTACTGTCATGGACCGGTTTTCCCGGTAATCCGTATTTGGA (site TTACTGTCTTC)” was 1.38.
“TTAGAACCATGGACCGGTTTTCCCGGTAATCCGTATTTGCC (site TTAGAACCTGG)”: the “recombinant UMI read abundance (log10)” value was 0.
The value for “TTAGATCCATGGACCGGTTTTCCCGGTAATCCGTATTTGAG (site TTAGATCCTCT)” was 0.358; that for “TTAGCAACATGGACCGGTTTTCCCGGTAATCCGTATTTGAG (site TTAGCAACTCT)” was 0.835; that for “TTAGCGGCATGGACCGGTTTTCCCGGTAATCCGTATTTGTG (site TTAGCAGCTCA)” was 0.356.
With “TTAGCGGCATGGACCGGTTTTCCCGGTAATCCGTATTTGTG (site TTAGCCGCTCA)”, the “recombinant UMI read abundance (log10)” value amounted to 0.00441.
Turning to “TTAGCGGCATGGACCGGTTTTCCCGGTAATCCGTATTTGTG (site TTAGCGGCTCA)”, the “recombinant UMI read abundance (log10)” value was found to be 1.51.
The value for “TTAGCGGCATGGACCGGTTTTCCCGGTAATCCGTATTTGTG (site TTAGCTGCTCA)” was 0.0387; that for “TTAGCTGCATGGACCGGTTTTCCCGGTAATCCGTATTTGTT (site TTAGCTGCTAA)” was 1.08.
With “TTAGCTGCATGGACCGGTTTTCCCGGTAATCCGTATTTGTT (site TTAGCTGCTCA)” the figure was 0.187; with “TTAGCTGCATGGACCGGTTTTCCCGGTAATCCGTATTTGTT (site TTAGCTGCTGA)”, 0.423; with “TTAGCTGCATGGACCGGTTTTCCCGGTAATCCGTATTTGTT (site TTAGCTGCTTA)”, 0.0119.
The value for “TTAGGACCATGGACCGGTTTTCCCGGTAATCCGTATTTGCA (site TTAGGACCTTG)” was 0.00659; that for “TTAGGTACATGGACCGGTTTTCCCGGTAATCCGTATTTGAC (site ATAGGTACTGT)” was 0.0067; that for “TTAGGTACATGGACCGGTTTTCCCGGTAATCCGTATTTGAC (site CTAGGTACTGT)” was 0.
With “TTAGGTACATGGACCGGTTTTCCCGGTAATCCGTATTTGAC (site GTAGGTACTGT)”, the “recombinant UMI read abundance (log10)” value came out at 0.
The value for “TTAGGTACATGGACCGGTTTTCCCGGTAATCCGTATTTGAC (site TTAGGTACTGT)” was 1.98; that for “TTAGTATCATGGACCGGTTTTCCCGGTAATCCGTATTTGTC (site CTAGTATCTGT)” was 0.
As for “TTAGTATCATGGACCGGTTTTCCCGGTAATCCGTATTTGTC (site TTAGTATCTGA)”, the “recombinant UMI read abundance (log10)” value came out at 1.77.
The value for “TTATAAGCATGGACCGGTTTTCCCGGTAATCCGTATTTGAG (site TTATAAGCTCT)” was 1.65; that for “TTATACCCATGGACCGGTTTTCCCGGTAATCCGTATTTGAG (site TTATACCCTCT)” was 0.00206; that for “TTATCATCATGGACCGGTTTTCCCGGTAATCCGTATTTGCT (site CGATCATCTAG)” was 0.595.
The value for “TTATCATCATGGACCGGTTTTCCCGGTAATCCGTATTTGCT (site TTATCATCTAG)” was 1.98; that for “TTATGAGCATGGACCGGTTTTCCCGGTAATCCGTATTTGGG (site TAATGAGCTCC)” was 0.0152; that for “TTATGAGCATGGACCGGTTTTCCCGGTAATCCGTATTTGGG (site TCATGAGCTCC)” was 0.0145.
The value for “TTATGAGCATGGACCGGTTTTCCCGGTAATCCGTATTTGGG (site TGATGAGCTCC)” was 0.0171.
With “TTATGAGCATGGACCGGTTTTCCCGGTAATCCGTATTTGGG (site TTATGAGCTCC)”, the “recombinant UMI read abundance (log10)” value is 0.0057.
The value for “TTATGCGCATGGACCGGTTTTCCCGGTAATCCGTATTTGCC (site TTATGCGCTGG)” was 1.93; that for “TTATTACCATGGACCGGTTTTCCCGGTAATCCGTATTTGGG (site TTATTACCTCC)” was 0.0164.
With “TTATTTACATGGACCGGTTTTCCCGGTAATCCGTATTTGAA (site TTATTTACTTT)” the figure was 0.00385; with “TTCAACCCATGGACCGGTTTTCCCGGTAATCCGTATTTGGA (site TTCAACCCTTC)”, 0; with “TTCAACTCATGGACCGGTTTTCCCGGTAATCCGTATTTGTC (site TTCAACTCTGA)”, 0.222.
With “TTCAATTCATGGACCGGTTTTCCCGGTAATCCGTATTTGCC (site TACAATTCTGG)” the figure was 0; with “TTCAATTCATGGACCGGTTTTCCCGGTAATCCGTATTTGCC (site TCCAATTCTGG)”, 0; with “TTCAATTCATGGACCGGTTTTCCCGGTAATCCGTATTTGCC (site TGCAATTCTGG)”, 0.
For “TTCAATTCATGGACCGGTTTTCCCGGTAATCCGTATTTGCC (site TTCAATTCTGG)”, the “recombinant UMI read abundance (log10)” value came out at 0.
With “TTCACGCCATGGACCGGTTTTCCCGGTAATCCGTATTTGAC (site TTCACGCCTGT)” the figure was 0.
With “TTCACTTCATGGACCGGTTTTCCCGGTAATCCGTATTTGTG (site TTCACTTCTCA)” the figure was 0.00654; with “TTCAGCTCATGGACCGGTTTTCCCGGTAATCCGTATTTGTT (site TTCAGCTCTAA)”, 0.00312; with “TTCATGACATGGACCGGTTTTCCCGGTAATCCGTATTTGCG (site TTCATGACTCG)”, 0.
With “TTCCCGCCATGGACCGGTTTTCCCGGTAATCCGTATTTGCT (site TTCCCGCCTAG)” the figure was 0.552.
Turning to “TTCCTCACATGGACCGGTTTTCCCGGTAATCCGTATTTGCT (site TTCCTCACTAG)”, the “recombinant UMI read abundance (log10)” value came to 0.293.
On to “TTCGAGACATGGACCGGTTTTCCCGGTAATCCGTATTTGCA (site TTCGAGACTTG)”, for which the “recombinant UMI read abundance (log10)” value turned out to be 0.725.
The value for “TTCGCCTCATGGACCGGTTTTCCCGGTAATCCGTATTTGAT (site TTCGCCTCTAT)” was 0.521; that for “TTCGCGACATGGACCGGTTTTCCCGGTAATCCGTATTTGAA (site TTCGCGACTTT)” was 0.0402; that for “TTCGCTTCATGGACCGGTTTTCCCGGTAATCCGTATTTGTG (site TTCGCTTCTCA)” was 0.
Regarding “TTCGGCACATGGACCGGTTTTCCCGGTAATCCGTATTTGAG (site TTCGGCACTCT)”, the “recombinant UMI read abundance (log10)” value amounted to 0.00333.
The value for “TTCGGGGCATGGACCGGTTTTCCCGGTAATCCGTATTTGTC (site TTCGGGGCTGA)” was 0; that for “TTCGTCCCATGGACCGGTTTTCCCGGTAATCCGTATTTGTC (site TTCGTCCCTGA)” was 0; that for “TTCTACACATGGACCGGTTTTCCCGGTAATCCGTATTTGCT (site ATCTACACTAG)” was 0.34.
As to “TTCTACACATGGACCGGTTTTCCCGGTAATCCGTATTTGCT (site CTCTACACTAG)”, the “recombinant UMI read abundance (log10)” value was 1.12.
With “TTCTACACATGGACCGGTTTTCCCGGTAATCCGTATTTGCT (site GTCTACACTAG)” the figure was 0.569.
Regarding “TTCTACACATGGACCGGTTTTCCCGGTAATCCGTATTTGCT (site TTCTACACTAG)”, the “recombinant UMI read abundance (log10)” value stood at 1.16.
With “TTCTAGGCATGGACCGGTTTTCCCGGTAATCCGTATTTGGT (site TACTAGGCTAC)” the figure was 0.00535; with “TTCTAGGCATGGACCGGTTTTCCCGGTAATCCGTATTTGGT (site TCCTAGGCTAC)”, 0.0191.
The value for “TTCTAGGCATGGACCGGTTTTCCCGGTAATCCGTATTTGGT (site TGCTAGGCTAC)” was 0.0112.
The value for “TTCTAGGCATGGACCGGTTTTCCCGGTAATCCGTATTTGGT (site TTCTAGGCTAC)” was 0.0102; that for “TTCTAGTCATGGACCGGTTTTCCCGGTAATCCGTATTTGAC (site TTCTAGTCTGT)” was 0.

These data come from the supplement of paper PMC11208160.
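Also: IS621 bridge recombinase in Escherichia coli cells against a fixed T5 target plasmid.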
